Measurements: ChEMBL document CHEMBL1759854, “Inhibitors of the tyrosine kinase EphB4. Part 4: Discovery and optimization of a benzylic alcohol series” (Bioorg Med Chem Lett, 2011)
One block for each compound: values may come before it.

How the values were obtained:
[1] = physchem; details: octanol/water
[2] = test system: Rattus norvegicus; experiment: Clearance in Han Wistar rat assessed as liver blood flow at 1 or 2.5 µmol/kg, iv and 5 or 10 µmol/kg, po; details: in vivo
[3] = Volume of distribution at steady state in Han Wistar rat at 1 or 2.5 µmol/kg, iv and 5 or 10 µmol/kg, po; details: in vivo, read-out: Vdss
[4] = Oral bioavailability in Han Wistar rat at 5 or 10 µmol/kg, po; details: in vivo
[5] = Volume of distribution at steady state in Beagle dog at 2 umol/kg, iv and 5 umol/kg, po; format: ADME, organism-based, Canis lupus familiaris; details: in vivo, read-out: Vdss
[6] = AUC in nude mouse at 100 umol/kg, po; format: ADME, organism-based; details: plasma
[7] = AUC in nude mouse at 10 umol/kg, po; format: ADME, organism-based; details: plasma
[8] = Cmax in nude mouse at 200 umol/kg, po; format: ADME, organism-based; design: dose 200 umol/kg, route oral; details: in vivo
[9] = Oral bioavailability in Beagle dog at 5 umol/kg, po; format: ADME, organism-based, Canis lupus familiaris; details: in vivo
[10] = Cmax in nude mouse at 10 umol/kg, po; format: ADME, organism-based; design: dose 10 umol/kg, route oral; details: in vivo
[11] = Cmax in nude mouse at 100 umol/kg, po; format: ADME, organism-based; design: dose 100 umol/kg, route oral; details: in vivo
[12] = test system: Canis familiaris; experiment: Clearance in Beagle dog assessed as liver blood flow at 2 umol/kg, iv and 5 umol/kg, po; format: ADME, organism-based, Canis lupus familiaris; details: in vivo
[13] = AUC in nude mouse at 200 umol/kg, po; format: ADME, organism-based; details: plasma

Compound: Cc1ccc(CO)cc1N(C)c1ccnc(Nc2cc(N3CCOCC3)cc(N3CCN(O)CC3)c2)n1
- logD [1]: 2.8

Compound: Cc1ccc(CO)cc1N(c1ccnc(Nc2cc(N3CCOCC3)cc(S(C)(=O)=O)c2)n1)C(C)C
- logD [1]: 3.4

Compound: CCN(c1ccnc(Nc2cc(N3CCOCC3)cc(N3CCOCC3)c2)n1)c1cc(CO)ccc1C
- logD [1]: 3.8

Compound: Cc1ccc(CO)cc1N(C)c1ccnc(Nc2cc(N3CCOCC3)cc(N3CCOCC3)c2)n1
- Vd [5]: 2.1 L/kg
- AUC [6]: 63 µM·h
- LBF [2]: 11%
- AUC [7]: 1.6 µM·h
- Cmax [8]: 17 µM
- Vd [3]: 0.5 L/kg
- bioavailability [9]: 58%
- logD [1]: 3.1
- Cmax [10]: 1.9 µM
- Cmax [11]: 15 µM
- LBF [12]: 51%
- AUC [13]: 155 µM·h
- bioavailability [4]: 78%

Compound: Cc1ccc(CO)cc1N(C)c1ccnc(Nc2cc(N3CCCOCC3)cc(N3CCOCC3)c2)n1
- logD [1]: 3.3

Compound: Cc1ccc(CO)cc1N(C)c1ccnc(Nc2cc(CN3CCOCC3)cc(N3CCOCC3)c2)n1
- logD [1]: 3

Compound: Cc1ccc(CO)cc1N(C)c1ccnc(Nc2cc(N3CCOCC3)nc(N3CCOCC3)n2)n1
- logD [1]: 3.9

Compound: Cc1ccc(CO)cc1N(C)c1ccnc(Nc2cc(N3CCOCC3)nc(N3CCOCC3)c2)n1
- Vd [5]: 1.6 L/kg
- LBF [2]: 9%
- Vd [3]: 0.7 L/kg
- bioavailability [9]: 22%
- logD [1]: 3.4
- LBF [12]: 57%
- bioavailability [4]: 64%

Compound: Cc1ccc(CO)cc1N(C)c1ccnc(Nc2cc(C(=O)N3CCOCC3)cc(N3CCOCC3)c2)n1
- logD [1]: 2.2

Compound: COCCN(c1ccnc(Nc2cc(N3CCOCC3)cc(N3CCOCC3)c2)n1)c1cc(CO)ccc1C
- logD [1]: 2.8

Next, values leading:

- logD [1]: 3.9
Compound: COc1cc(Nc2nccc(N(C)c3cc(CO)ccc3C)n2)cc(N2CCOCC2)c1

- LBF [2]: 16%
- Vd [3]: 0.4 L/kg
- bioavailability [4]: 17%
Compound: Cc1ccc(CO)cc1N(C)c1ccnc(Nc2cc(N3CCOCC3)cc(S(C)(=O)=O)c2)n1

- logD [1]: 3.3
Compound: COCCOc1cc(Nc2nccc(N(C)c3cc(CO)ccc3C)n2)cc(N2CCOCC2)c1

- logD [1]: 4.2
Compound: Cc1ccc(CO)cc1N(C)c1ccnc(Nc2cc(N3CCCCC3)cc(N3CCOCC3)c2)n1

- logD [1]: 3.7
Compound: Cc1ccc(CO)cc1N(C)c1ccnc(Nc2cc(OC3CCOCC3)cc(N3CCOCC3)c2)n1

- logD [1]: 3.8
Compound: Cc1ccc(CO)cc1N(C)c1ccnc(Nc2cc(N3CCCC3)cc(N3CCOCC3)c2)n1
